What all share (assay type): functional, cell-based
One assay relates to CCRF-CEM. Description: Cytotoxicity against human CCRF-CEM cells.
Assay [1] can be described thus: Cytotoxicity against human A2780S cells. Particulars: A2780.
A short description of assay [2]: Cytotoxicity against human A2780DDP cells.
A further assay deals with SW-620. In words: Cytotoxicity against human SW620 cells.
For another assay, the system named is COLO 205. In words: Cytotoxicity against human COLO205 cells.
A further assay relates to CX-1. In words: Cytotoxicity against human CX-1 cells.
The next assay relates to Caco-2. Description: Cytotoxicity against human Caco-2 cells.
In another assay the test system is HCT-15. Description: Cytotoxicity against human HCT15 cells.
Assay [3] in a line: Cytotoxicity against human LS 174T cells. The note with it: LS174T.
Another assay relates to SW948. Description: Cytotoxicity against human SW948 cells.
Assay [4] in a line: Cytotoxicity against human CCL228 cells.
Another assay concerns MCF7. Description: Cytotoxicity against human MCF7 cells.
Another assay relates to SK-BR-3. Description: Cytotoxicity against human SK-BR-3 cells.
A short description of assay [5]: Cytotoxicity against human […] cells.
A further assay relates to T47D. In words: Cytotoxicity against human T47D cells.
The test system of a further assay is LX-1. In words: Cytotoxicity against human LX1 cells.
The subject of another assay is A549. Description: Cytotoxicity against human A549 cells.
A short description of assay [6]: Cytotoxicity against human LOX cells.
Assay [7] is described as follows: Cytotoxicity against human NEC cells.
For the next assay, the system named is DU-145. Description: Cytotoxicity against human DU145 cells.
A further assay has as its system PC-3. In words: Cytotoxicity against human PC3 cells.
For another assay, the system named is LNCaP. Description: Cytotoxicity against human LNCAP cells.

The structures appear in SMILES notation. In brackets after ≈: the same amount, converted by molar mass.

In the case of `C=C(C=O)[C@@H]1C[C@@]2(C)C(=CC1=O)[C@H](OC(=O)/C=C/C=C/C(C)CC(C)CC)CC[C@@H]2C(=O)O` (relative stereo), the IC50 with CCRF-CEM was found to be 0.88 mg/L (≈ 1.93 µM); in [1], 3.09 mg/L (≈ 6.77 µM); in [2], 3.01 mg/L (≈ 6.59 µM); in the assay on SW-620 it was 3.6 mg/L (≈ 7.88 µM); with COLO 205, 3.41 mg/L (≈ 7.47 µM); with CX-1, 3.21 mg/L (≈ 7.03 µM). The IC50 in the assay on Caco-2 turned out to be 3.25 mg/L (≈ 7.12 µM); with HCT-15, 4.08 mg/L (≈ 8.94 µM); in assay [3] it was 3.29 mg/L (≈ 7.21 µM); with SW948, 3.09 mg/L (≈ 6.77 µM); in assay [4], 3.04 mg/L (≈ 6.66 µM); in the assay with MCF7, 2.83 mg/L (≈ 6.2 µM). Also, the IC50 was 3.53 mg/L (≈ 7.73 µM) in the assay on SK-BR-3; 2.47 mg/L (≈ 5.41 µM) in assay [5]; 3.5 mg/L (≈ 7.67 µM) in the assay on T47D; 4.16 mg/L (≈ 9.11 µM) with LX-1; 3.95 mg/L (≈ 8.65 µM) in the assay on A549; 3.43 mg/L (≈ 7.51 µM) in [6]. In addition, the IC50 came out at 3.38 mg/L (≈ 7.4 µM) in assay [7], 3.06 mg/L (≈ 6.7 µM) with DU-145, 3.59 mg/L (≈ 7.86 µM) in the assay with PC-3 and 3.06 mg/L (≈ 6.7 µM) in the assay with LNCaP.

Broadly, the IC50 is the concentration at which inhibition is half-maximal.

These data come from ChEMBL document CHEMBL1148901, “07H239-A, a new cytotoxic eremophilane sesquiterpene from the marine-derived Xylariaceous fungus LL-07H239” (J Nat Prod, 2004).
